Legend:
hGSK3b = target: T1, hGSK3b (Homo sapiens, UniProt P49841); test: Cerep LANCE kinase assay hGSK3b (S1 assay 34); assay type: biochemical
T1 construct: purchased Cerep (LANCE kinase assay platform, contract assay)

HeLa cells = test: cells; assay type: cell-based; conditions: for Hela CellCycMod PI 2N IC50/EC50: assay number 14; for Hela CellCycMod PI S Phase IC50/EC50: assay number 15; for Hela CellCycMod PI 4N IC50/EC50: assay number 16; for Hela CellCycMod PI MI IC50/EC50: assay number 17; for Hela CellCycMod PI Cell Number IC50/EC50: assay number 18
[1] = tested on: nuclear β-catenin in C2C12 cells; test: cells; assay type: cell-based; conditions: concentration response; for WntCondMedia_bCatenin C2C12 IC50/EC50: assay number 5
hKDR = target: T2, hKDR (Homo sapiens, UniProt P35968); test: Cerep LANCE kinase assay hKDR (S1 assay 32); assay type: biochemical
T2 construct: purchased Cerep (LANCE kinase assay platform, contract assay)
T2 sequence (P35968 20-1356): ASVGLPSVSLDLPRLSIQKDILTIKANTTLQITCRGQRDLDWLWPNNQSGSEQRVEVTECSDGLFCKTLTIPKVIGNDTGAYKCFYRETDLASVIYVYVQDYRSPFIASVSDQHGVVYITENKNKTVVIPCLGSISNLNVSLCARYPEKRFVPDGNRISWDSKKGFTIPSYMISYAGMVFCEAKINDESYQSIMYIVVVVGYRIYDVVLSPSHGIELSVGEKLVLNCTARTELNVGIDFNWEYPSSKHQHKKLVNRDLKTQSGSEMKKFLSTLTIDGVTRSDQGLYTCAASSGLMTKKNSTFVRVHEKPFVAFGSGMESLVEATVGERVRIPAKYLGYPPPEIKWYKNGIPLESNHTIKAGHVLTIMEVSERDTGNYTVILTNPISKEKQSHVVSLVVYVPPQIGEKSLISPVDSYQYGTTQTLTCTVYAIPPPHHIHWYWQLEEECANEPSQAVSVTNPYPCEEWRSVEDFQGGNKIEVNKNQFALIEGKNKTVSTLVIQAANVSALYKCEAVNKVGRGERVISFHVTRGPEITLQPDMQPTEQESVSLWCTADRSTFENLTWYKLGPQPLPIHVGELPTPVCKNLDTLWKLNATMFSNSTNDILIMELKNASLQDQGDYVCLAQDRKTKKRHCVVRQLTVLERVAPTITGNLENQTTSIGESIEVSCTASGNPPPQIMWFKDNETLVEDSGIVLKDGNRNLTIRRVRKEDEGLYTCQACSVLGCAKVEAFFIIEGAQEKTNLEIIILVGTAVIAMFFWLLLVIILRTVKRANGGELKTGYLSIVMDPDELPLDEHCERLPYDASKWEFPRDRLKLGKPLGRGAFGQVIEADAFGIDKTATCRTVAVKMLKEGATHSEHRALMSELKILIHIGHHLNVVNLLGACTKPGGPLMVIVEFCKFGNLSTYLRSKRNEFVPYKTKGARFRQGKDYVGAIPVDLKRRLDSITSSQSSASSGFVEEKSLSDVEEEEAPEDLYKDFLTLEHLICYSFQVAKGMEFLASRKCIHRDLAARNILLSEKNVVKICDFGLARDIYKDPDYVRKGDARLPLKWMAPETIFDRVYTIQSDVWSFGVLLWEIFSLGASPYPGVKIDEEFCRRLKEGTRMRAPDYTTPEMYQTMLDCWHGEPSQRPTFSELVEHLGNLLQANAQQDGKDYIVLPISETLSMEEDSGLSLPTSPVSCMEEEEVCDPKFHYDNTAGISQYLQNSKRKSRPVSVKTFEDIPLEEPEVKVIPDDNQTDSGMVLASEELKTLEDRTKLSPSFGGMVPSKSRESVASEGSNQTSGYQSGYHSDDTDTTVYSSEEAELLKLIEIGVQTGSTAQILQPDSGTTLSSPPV

hFLT3 = target: T3, hFLT3 (Homo sapiens, UniProt P36888); test: Cerep LANCE kinase assay hFLT3 (S1 assay 35); assay type: biochemical
T3 construct: purchased Cerep (LANCE kinase assay platform, contract assay)
T3 sequence (P36888 27-993): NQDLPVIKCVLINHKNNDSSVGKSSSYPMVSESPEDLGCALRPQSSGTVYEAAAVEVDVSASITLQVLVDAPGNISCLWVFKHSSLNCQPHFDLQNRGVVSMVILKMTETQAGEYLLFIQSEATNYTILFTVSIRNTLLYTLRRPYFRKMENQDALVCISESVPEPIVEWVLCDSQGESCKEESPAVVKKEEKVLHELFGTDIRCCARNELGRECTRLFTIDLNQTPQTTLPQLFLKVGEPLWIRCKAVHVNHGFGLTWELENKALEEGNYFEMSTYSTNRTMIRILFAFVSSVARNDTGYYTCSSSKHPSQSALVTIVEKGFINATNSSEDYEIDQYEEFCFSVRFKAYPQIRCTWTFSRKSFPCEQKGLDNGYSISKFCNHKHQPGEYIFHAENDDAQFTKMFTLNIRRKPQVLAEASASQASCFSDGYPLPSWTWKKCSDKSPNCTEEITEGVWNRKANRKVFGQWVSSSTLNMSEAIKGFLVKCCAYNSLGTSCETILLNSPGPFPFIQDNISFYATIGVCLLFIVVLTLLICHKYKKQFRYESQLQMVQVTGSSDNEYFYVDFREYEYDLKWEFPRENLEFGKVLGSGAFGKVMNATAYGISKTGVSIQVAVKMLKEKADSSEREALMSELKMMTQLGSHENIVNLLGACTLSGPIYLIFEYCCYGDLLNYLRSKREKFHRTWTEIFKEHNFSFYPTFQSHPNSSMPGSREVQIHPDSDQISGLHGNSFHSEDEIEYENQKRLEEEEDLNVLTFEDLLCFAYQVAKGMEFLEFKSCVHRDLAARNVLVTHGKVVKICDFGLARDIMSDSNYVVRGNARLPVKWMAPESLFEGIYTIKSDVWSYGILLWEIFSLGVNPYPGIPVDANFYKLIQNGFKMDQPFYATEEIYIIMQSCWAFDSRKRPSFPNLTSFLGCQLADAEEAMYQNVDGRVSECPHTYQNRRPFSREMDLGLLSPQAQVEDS

[2] = tested on: alkaline phosphatase (ALP) activity in C2C12 cells; assay type: cell-based; conditions: concentration response; for WntCondMedia_Alk Phos C2C12 IC50/EC50: assay number 6
hJAK2 = target: T4, hJAK2 (Homo sapiens, UniProt O60674); test: Cerep LANCE kinase assay hJAK2 (S1 assay 33); assay type: biochemical
T4 construct: purchased Cerep (LANCE kinase assay platform, contract assay)
T4 sequence (O60674 whole entry): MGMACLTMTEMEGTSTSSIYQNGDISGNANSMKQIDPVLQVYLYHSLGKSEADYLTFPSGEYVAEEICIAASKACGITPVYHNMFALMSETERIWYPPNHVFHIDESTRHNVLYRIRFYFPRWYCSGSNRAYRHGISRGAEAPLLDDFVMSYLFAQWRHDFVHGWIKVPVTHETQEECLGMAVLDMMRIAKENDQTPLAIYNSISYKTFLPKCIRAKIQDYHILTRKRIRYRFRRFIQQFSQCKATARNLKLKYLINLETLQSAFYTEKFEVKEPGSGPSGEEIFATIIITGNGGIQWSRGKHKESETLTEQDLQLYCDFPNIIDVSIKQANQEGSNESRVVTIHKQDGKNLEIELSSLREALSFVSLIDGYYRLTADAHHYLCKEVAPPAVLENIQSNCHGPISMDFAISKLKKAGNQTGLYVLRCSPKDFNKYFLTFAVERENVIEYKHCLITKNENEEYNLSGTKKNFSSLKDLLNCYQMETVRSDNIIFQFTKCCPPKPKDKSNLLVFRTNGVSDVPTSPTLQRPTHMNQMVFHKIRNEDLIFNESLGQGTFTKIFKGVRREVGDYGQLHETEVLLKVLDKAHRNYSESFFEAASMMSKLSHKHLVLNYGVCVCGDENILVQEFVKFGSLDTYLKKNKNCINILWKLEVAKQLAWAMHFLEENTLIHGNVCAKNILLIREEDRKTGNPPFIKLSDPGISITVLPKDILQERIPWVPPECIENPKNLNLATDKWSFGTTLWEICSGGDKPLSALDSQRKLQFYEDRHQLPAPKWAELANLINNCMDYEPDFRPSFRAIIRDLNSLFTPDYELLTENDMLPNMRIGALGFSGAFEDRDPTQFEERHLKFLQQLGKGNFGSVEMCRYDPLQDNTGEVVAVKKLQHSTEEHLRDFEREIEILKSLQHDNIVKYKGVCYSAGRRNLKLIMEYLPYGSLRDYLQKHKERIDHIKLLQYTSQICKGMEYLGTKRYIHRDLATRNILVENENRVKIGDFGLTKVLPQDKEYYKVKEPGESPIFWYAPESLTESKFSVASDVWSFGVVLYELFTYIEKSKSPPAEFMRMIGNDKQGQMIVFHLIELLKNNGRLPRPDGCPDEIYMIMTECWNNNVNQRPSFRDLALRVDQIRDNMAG

hp70S6K1 (RPS6KB1) = target: T5, hp70S6K1 (RPS6KB1) (Homo sapiens, UniProt P23443); test: Cerep LANCE kinase assay hp70S6K1 (S1 assay 31); assay type: biochemical
T5 construct: purchased Cerep (LANCE kinase assay platform, contract assay)
T5 sequence (P23443 whole entry): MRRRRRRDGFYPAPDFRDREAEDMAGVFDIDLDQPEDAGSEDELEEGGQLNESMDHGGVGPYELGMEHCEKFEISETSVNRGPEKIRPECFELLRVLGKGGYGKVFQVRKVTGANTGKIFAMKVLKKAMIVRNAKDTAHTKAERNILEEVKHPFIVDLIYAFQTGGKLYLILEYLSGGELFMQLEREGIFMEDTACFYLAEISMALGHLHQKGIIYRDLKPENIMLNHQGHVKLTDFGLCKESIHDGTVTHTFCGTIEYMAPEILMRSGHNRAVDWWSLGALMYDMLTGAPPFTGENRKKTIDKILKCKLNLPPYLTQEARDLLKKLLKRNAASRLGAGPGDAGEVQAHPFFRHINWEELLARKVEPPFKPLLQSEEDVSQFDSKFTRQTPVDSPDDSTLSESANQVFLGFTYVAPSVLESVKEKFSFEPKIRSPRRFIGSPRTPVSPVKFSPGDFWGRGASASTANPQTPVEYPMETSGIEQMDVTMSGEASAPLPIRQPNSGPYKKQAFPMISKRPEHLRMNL

INS-1E cells = test: cells; assay type: cell-based, rat; conditions: 5 mM glucose;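 also: secreted insulin quantified by homogeneous immunoassay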
[3] = tested on: endothelial tube formation in co-cultures of ECFCs and ADSCs treated with VEGF; test: cells; assay type: cell-based, human
[4] = tested on: ECFC/ADSC co-culture cell nuclei number
DLD-1 = test: cells; assay type: cell-based; conditions: basal; for Basal_Viability ATP DLD-1 IC50/EC50: assay number 23
Colo320 = test: cells; assay type: cell-based; conditions: basal; for Basal_Viability ATP Colo 320 IC50/EC50: assay number 27
[5] = tested on: HCT116 cells treated with a GSK3β inhibitor; test: cells; assay type: cell-based; conditions: for GSK3b inh pretreated_Viability ATP HCT116 IC50/EC50: assay number 26, GSK3b inhibitor pretreated
HT-29 = test: cells; assay type: cell-based; conditions: basal; for Basal_Viability ATP HT-29 IC50/EC50: assay number 28
SW480 = test: cells; assay type: cell-based; conditions: basal; for Basal_Viability ATP SW480 IC50/EC50: assay number 24
RKO = test: cells; assay type: cell-based; conditions: basal; for Basal_Viability ATP RKO IC50/EC50: assay number 29
HCT116 = test: cells; assay type: cell-based; conditions: basal
SNU-C1 = test: cells; assay type: cell-based; conditions: basal; for Basal_Viability ATP SNU-C1 IC50/EC50: assay number 30

T1 sequence (P49841 whole entry): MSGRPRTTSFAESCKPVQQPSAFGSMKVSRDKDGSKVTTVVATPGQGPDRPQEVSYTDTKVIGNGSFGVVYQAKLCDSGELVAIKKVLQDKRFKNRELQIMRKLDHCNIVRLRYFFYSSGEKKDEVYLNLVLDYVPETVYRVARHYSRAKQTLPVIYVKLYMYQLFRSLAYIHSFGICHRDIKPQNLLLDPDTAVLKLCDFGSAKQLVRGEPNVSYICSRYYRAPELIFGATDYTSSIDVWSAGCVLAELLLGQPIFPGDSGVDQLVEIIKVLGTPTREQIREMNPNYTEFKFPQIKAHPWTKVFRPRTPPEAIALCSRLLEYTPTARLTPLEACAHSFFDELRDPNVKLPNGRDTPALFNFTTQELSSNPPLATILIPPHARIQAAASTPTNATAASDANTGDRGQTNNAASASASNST

| Compound | IC50/EC50, WntCondMedia_bCatenin C2C12 (assay number 5) [1] [µM] | IC50/EC50, WntCondMedia_Alk Phos C2C12 (assay number 6) [2] [µM] | Hela CellCycMod PI 2N IC50/EC50 (HeLa cells) [µM] | Hela CellCycMod PI S Phase IC50/EC50 (HeLa cells) [µM] | Hela CellCycMod PI 4N IC50/EC50 (HeLa cells) [µM] | Hela CellCycMod PI MI IC50/EC50 (HeLa cells) [µM] | Hela CellCycMod PI Cell Number IC50/EC50 (HeLa cells) [µM] | VEGF_ADSC\ECFC Angio CD31 TubeArea IC50/EC50 [3] [µM] | WntCondMedia_bCatenin C2C12 IC50/EC50 [1] [µM] | WntCondMedia_Alk Phos C2C12 IC50/EC50 [2] [µM] | VEGF_ADSC\ECFC Angio Hoechst NucArea IC50/EC50 [4] [µM] | further results |
| --- | --- | --- | --- | --- | --- | --- | --- | --- | --- | --- | --- | --- |
| CCc1nc(N)nc(N)c1-c1ccc(Cl)cc1 [NCGC00016256-17] | 0.86 | 0.0677 |  |  |  |  |  |  |  |  |  | IC50/EC50, hGSK3b LANCE (assay number 34) (hGSK3b): > 20 µM; IC50/EC50, Hela CellCycMod PI 2N (assay number 14) (HeLa cells): > 10 µM; IC50/EC50, Hela CellCycMod PI 4N (assay number 16) (HeLa cells): > 10 µM; IC50/EC50, Hela CellCycMod PI Cell Number (assay number 18) (HeLa cells): > 10 µM; IC50/EC50, Hela CellCycMod PI MI (assay number 17) (HeLa cells): > 10 µM; IC50/EC50, Hela CellCycMod PI S Phase (assay number 15) (HeLa cells): > 10 µM; IC50/EC50, hKDR LANCE (assay number 32) (hKDR): > 20 µM; IC50/EC50, hFLT3 LANCE (assay number 35) (hFLT3): > 20 µM; IC50/EC50, hJAK2 LANCE (assay number 33) (hJAK2): > 20 µM; IC50/EC50, hp70S6K1 LANCE (assay number 31) (hp70S6K1 (RPS6KB1)): > 20 µM |
| CN1C[C@H](CNC(=O)OCc2ccccc2)C[C@@H]2c3cccc4c3c(cn4C)C[C@H]21 [NCGC00017257-14] | > 20 | > 20 |  |  |  |  |  |  |  |  |  | IC50/EC50, 5mMGluc_INS1E SecretionMod (assay number 8) (INS-1E cells): > 33.33 µM |
| CCCCCCCCCCOCC(O)CN (centres unmarked) [NCGC00166070-02] |  |  | > 10 | > 10 | > 10 | > 10 | > 10 | 6.5465 | > 20 | > 20 | > 10 |  |
| C[n+]1c2cc(N)ccc2cc2ccc(N)cc21 [NCGC00178831-03] | > 20 | 1.5999 |  |  |  |  |  |  |  |  |  | IC50/EC50, hGSK3b LANCE (assay number 34) (hGSK3b): > 20 µM; IC50/EC50, Hela CellCycMod PI 2N (assay number 14) (HeLa cells): 3.3946 µM; IC50/EC50, Hela CellCycMod PI 4N (assay number 16) (HeLa cells): > 10 µM; IC50/EC50, Hela CellCycMod PI Cell Number (assay number 18) (HeLa cells): 0.4722 µM; IC50/EC50, Hela CellCycMod PI MI (assay number 17) (HeLa cells): 2.194 µM; IC50/EC50, Hela CellCycMod PI S Phase (assay number 15) (HeLa cells): 1.9618 µM; IC50/EC50, hKDR LANCE (assay number 32) (hKDR): > 20 µM; IC50/EC50, hFLT3 LANCE (assay number 35) (hFLT3): > 20 µM; IC50/EC50, hJAK2 LANCE (assay number 33) (hJAK2): > 20 µM; IC50/EC50, hp70S6K1 LANCE (assay number 31) (hp70S6K1 (RPS6KB1)): 6.57 µM |
| Cc1nc(Nc2ncc(C(=O)Nc3c(C)cccc3Cl)s2)cc(N2CCN(CCO)CC2)n1 [NCGC00181129-06] |  |  | > 10 |  | > 10 | > 10 | 0.8748 | > 10 | 0.1044 | 0.0067 | > 10 |  |
| NC(N)=NN=C(/C=C/c1ccc([N+](=O)[O-])o1)/C=C/c1ccc([N+](=O)[O-])o1 [NCGC00181330-02] | > 20 | 0.372 |  |  |  |  |  |  |  |  |  | IC50/EC50, Basal_Viability ATP DLD-1 (assay number 23) (DLD-1): > 20 µM; IC50/EC50, Basal_Viability ATP Colo 320 (assay number 27) (Colo320): 0.003 µM; IC50/EC50, Hela CellCycMod PI 2N (assay number 14) (HeLa cells): > 10 µM; IC50/EC50, Hela CellCycMod PI 4N (assay number 16) (HeLa cells): > 10 µM; IC50/EC50, Hela CellCycMod PI Cell Number (assay number 18) (HeLa cells): > 10 µM; IC50/EC50, Hela CellCycMod PI MI (assay number 17) (HeLa cells): > 10 µM; IC50/EC50, Hela CellCycMod PI S Phase (assay number 15) (HeLa cells): > 10 µM; IC50/EC50, GSK3b inh pretreated_Viability ATP HCT116 (assay number 26) ([5]; GSK3b inh pretreated): 0.0237 µM; IC50/EC50, Basal_Viability ATP HT-29 (assay number 28) (HT-29): 0.003 µM; IC50/EC50, Basal_Viability ATP SW480 (assay number 24) (SW480): 0.0076 µM; IC50/EC50, Basal_Viability ATP RKO (assay number 29) (RKO): 0.0128 µM; IC50/EC50, Basal_Viability ATP HCT116 (assay number 25) (HCT116): 0.1357 µM; IC50/EC50, Basal_Viability ATP SNU-C1 (assay number 30) (SNU-C1): 1.3539 µM |
| CN1CC[C@H](c2c(O)cc(O)c3c(=O)cc(-c4ccccc4Cl)oc23)[C@H](O)C1.Cl [NCGC00250401-02] |  |  | > 10 |  | > 10 | 0.0807 | 0.0212 | 0.1138 | 0.1905 | 0.4611 | 0.3284 |  |
| CCCCCCCCCCCCNCCNCCNCC(=O)O [NCGC00274269-01] |  |  | > 10 | > 10 | > 10 | > 10 | > 10 | 6.0404 | > 20 | > 20 | > 10 |  |
| COc1cccc2c1C(=O)c1c(O)c3c(c(O)c1C2=O)C[C@@](O)(C(=O)CO)CC3OC1CC(N2CCOC(OC)C2)C(O)C(C)O1 (some centres unmarked) [NCGC00319019-01] |  |  |  |  | > 10 | 0.01176 | 0.00468 | 0.003 | 0.0135 | > 20 | 0.04422 | Basal_Viability ATP DLD-1 IC50/EC50 (DLD-1): 0.001 µM; Basal_Viability ATP Colo 320 IC50/EC50 (Colo320): 0.001 µM; GSK3b inh pretreated_Viability ATP HCT116 IC50/EC50 [5]: 0.001 µM; Basal_Viability ATP SW480 IC50/EC50 (SW480): 0.001 µM; Basal_Viability ATP RKO IC50/EC50 (RKO): 0.001 µM |
| COc1cccc2c1C(=O)c1c(O)c3c(c(O)c1C2=O)C[C@@](O)(C(=O)CO)C[C@@H]3O[C@H]1C[C@H](N)[C@H](O[C@@H]2CCCCO2)[C@H](C)O1 [NCGC00344543-01] |  |  | 0.0795 | 1.746 | 0.08063 | > 10 | 0.05143 | 0.0063 | > 20 | 3.9488 | 0.9949 | Basal_Viability ATP DLD-1 IC50/EC50 (DLD-1): 8.952 µM; Basal_Viability ATP Colo 320 IC50/EC50 (Colo320): 2.013 µM; GSK3b inh pretreated_Viability ATP HCT116 IC50/EC50 [5]: 1.275 µM; Basal_Viability ATP HT-29 IC50/EC50 (HT-29): > 20 µM; Basal_Viability ATP SW480 IC50/EC50 (SW480): 7.822 µM; Basal_Viability ATP RKO IC50/EC50 (RKO): 1.01 µM; Basal_Viability ATP HCT116 IC50/EC50 (HCT116; assay number 25): 0.9107 µM; Basal_Viability ATP SNU-C1 IC50/EC50 (SNU-C1): 9.2617 µM |
| CC[C@]1(O)C[C@@H]2CN(CCc3c([nH]c4ccccc34)[C@@](C(=O)OC)(c3cc4c(cc3OC)N(C)[C@H]3[C@@](O)(C(=O)OC)[C@H](OC(C)=O)[C@]5(CC)C=CCN6CC[C@]43[C@@H]65)C2)C1.O=S(=O)(O)O [NCGC00344583-01] |  |  | 0.0048 | > 10 | 0.00483 | 0.00452 | 0.00521 | 0.0026 | 0.0035 | > 20 | > 10 | Basal_Viability ATP Colo 320 IC50/EC50 (Colo320): 0.001 µM; GSK3b inh pretreated_Viability ATP HCT116 IC50/EC50 [5]: 0.001 µM; Basal_Viability ATP HT-29 IC50/EC50 (HT-29): 0.001 µM; Basal_Viability ATP RKO IC50/EC50 (RKO): 0.001 µM; Basal_Viability ATP SNU-C1 IC50/EC50 (SNU-C1): 0.001 µM |

Source: publication PMC4503722, “Novel Phenotypic Outcomes Identified for a Public Collection of Approved Drugs from a Publicly Accessible Panel of Assays” (PLoS ONE, 2015)
